# Measured values: patent US7655392B2, “Quenching methods for red blood cell inactivation process” (priority 2004, dated 2010)
# Several values for one entry are separate records, joined by “and”; a condition that tells them apart may be missing. Identical values can stand only once. Like-named read-outs stand apart in the source and are kept apart here.
# Test system: red blood cells
# Format: cell-based
# Procedure: In another assay, the rabbit polyclonal sera may be reacted with treated red blood cells. After washing off unbound antibody, a FITC labeled goat anti-rabbit Fab′2 fragment (anti H+L chains, Caltag) is added. The binding of FITC label to the red blood cells correlates with the amount of acridine bound to the red blood cell surface, and is assessed by FACScan™ analysis (Becton, Dickinson and Co., NJ). The relative modification of the red blood cells is determined from the FACScan™ mean fluorescence value.
# A 20 mL sample of leukoreduced whole blood (Blood Source, Sacramento, Calif.) was centrifuged at 4,100×g for 5 minutes at room temperature in each of four 50 mL centrifuge tubes. The supernatant was removed from each tube to provide red cell concentrate (RCC). […] For each washed RCC, cells were resuspended in 5 mL of the solution used for washing. This is now referred to as the RBC test sample. […] These samples were incubated for 20 hours at room temperature. After incubation, the RBC were washed in BBS (Blood Bank Saline, 0.9% saline, unbuffered, Fisher Scientific) and were diluted to a final hematocrit of 4%. A 25 μL aliquot of each was mixed with 15 μL of rabbit polyclonal anti-acridine sera diluted 1:100 in BBS and the mixture was incubated at 37° C. for 30 minutes. The cells were subsequently washed with 1.5 mL BBS. After washing was complete, the cells were mixed with 50 μL of FITC labeled goat anti-rabbit Fab′2 fragment (1:64 dilution in BBS) and incubated at 37° C. for 30 minutes. […] Note that the quenching improves as glutathione is neutralized with increasing amounts of sodium hydroxide.
# The FACScan analysis of the binding of rabbit anti-acridine sera to treated red cells was used to assess a variety of quenching conditions. […] The tables represent data from two different experiments, each with samples treated under standard conditions or with 20 mM neutralized glutathione. […] The data within an experiment provides the relative efficacy of the various treatments. Because the assay may depend on the lot of red blood cells used, the absolute values of mean fluorescence may vary from one study to the next, such that relative values should only be compared within a given experiment. […] Neutralized glutathione at 20 mM results in close to background levels.
# An untreated control sample as well as a standard sample (co-addition of 2 mM acidic glutathione with 0.2 mM PIC-1) were also assessed.
# Full units of red cell concentrates (Interstate Blood Bank, Inc., Memphis, Tenn.) were leukoreduced. A volume of 200 mL of this RCC (80% hematocrit) was mixed with 94 mL of Erythrosol or 100 mL of Adsol (Baxter Healthcare Corp., Deerfield, Ill.) as control (unit 1). A volume of 20 mL 8% dextrose was used to dissolve PIC-1 (mg) and acid glutathione (mg) and added to one unit to provide 0.2 mM PIC-1 and 2 mM glutathione (unit 2). […] For the glutathione, 1.2 mL of 10 N NaOH was added (2 equivalents). The PIC-1 was mixed with the unit, followed 1 minute later (unit 3) or 5 minutes later (unit 4) by glutathione. For unit 5, neutralized glutathione was mixed first, followed 10 minutes later by the PIC-1. […] All units were mixed by grasping the ends of the blood bag and mixing in a FIG. 8 motion 30 times. These were then incubated at room temperature for 20 hours total. A compound adsorption device (CAD), comprising a polymeric resin contained within a mesh pouch, was used for all but the control sample. This device is intended to remove residual PIC-1, PIC-1 breakdown products, and glutathione from the samples. Samples were incubated for 8 hours, then transferred to a second blood bag containing the CAD and incubated for an additional 12 hours. Following the room temperature incubation, samples were transferred to a refrigerator (4° C.) and stored up to 43 days.
compound,measurement,setting,value
O=C(CCNc1c2ccccc2nc2ccccc12)OCCN(CCCl)CCCl [PIC-1],mean fluorescence,"16C day 14, unit 2: standard 0.2 mM PIC-1+2 mM GSH",135.7
same,mean fluorescence,"16C day 14, unit 3: 0.2 mM PIC-1, 1' delay, 20 mM GSH+2 eq base",4.09
same,mean fluorescence,"16C day 14, unit 4: 0.2 mM PIC-1, 5' delay, 20 mM GSH+2 eq base",8.41
same,mean fluorescence,"16C day 14, unit 5: 20 mM GSH+2 eq base, 10' delay, 0.2 mM PIC-1",3.29
same,mean fluorescence,"16C day 22, unit 2: standard 0.2 mM PIC-1+2 mM GSH",90.8
same,mean fluorescence,"16C day 22, unit 3: 0.2 mM PIC-1, 1' delay, 20 mM GSH+2 eq base",2.61
same,mean fluorescence,"16C day 22, unit 4: 0.2 mM PIC-1, 5' delay, 20 mM GSH+2 eq base",4.46
same,mean fluorescence,"16C day 22, unit 5: 20 mM GSH+2 eq base, 10' delay, 0.2 mM PIC-1",2.12
same,mean fluorescence,"16C day 28, unit 2: standard 0.2 mM PIC-1+2 mM GSH",128.7
same,mean fluorescence,"16C day 28, unit 3: 0.2 mM PIC-1, 1' delay, 20 mM GSH+2 eq base",2.6
same,mean fluorescence,"16C day 28, unit 4: 0.2 mM PIC-1, 5' delay, 20 mM GSH+2 eq base",5.69
same,mean fluorescence,"16C day 28, unit 5: 20 mM GSH+2 eq base, 10' delay, 0.2 mM PIC-1",2.83
same,mean fluorescence,"16C day 35, unit 2: standard 0.2 mM PIC-1+2 mM GSH",153.4
same,mean fluorescence,"16C day 35, unit 3: 0.2 mM PIC-1, 1' delay, 20 mM GSH+2 eq base",2.74
same,mean fluorescence,"16C day 35, unit 4: 0.2 mM PIC-1, 5' delay, 20 mM GSH+2 eq base",6.71
same,mean fluorescence,"16C day 35, unit 5: 20 mM GSH+2 eq base, 10' delay, 0.2 mM PIC-1",2.58
same,mean fluorescence,"16C day 43, unit 2: standard 0.2 mM PIC-1+2 mM GSH",136.1
same,mean fluorescence,"16C day 43, unit 3: 0.2 mM PIC-1, 1' delay, 20 mM GSH+2 eq base",2.43
same,mean fluorescence,"16C day 43, unit 4: 0.2 mM PIC-1, 5' delay, 20 mM GSH+2 eq base",4.51
same,mean fluorescence,"16C day 43, unit 5: 20 mM GSH+2 eq base, 10' delay, 0.2 mM PIC-1",2.46
same,Mean fluorescence intensity,"RBC CHES pH 9 3x wash, 0.2 mM PIC-1, 2 mM GSH",12.1
same,Mean fluorescence intensity,"RBC CHES pH 9 3x wash, 0.2 mM PIC-1, 20 mM GSH+0.9 eq NaOH",3.9
same,Mean fluorescence intensity,"RBC CHES pH 9 3x wash, 0.2 mM PIC-1, 20 mM GSH+1.5 eq NaOH",1.9
same,Mean fluorescence intensity,"RBC CHES pH 9 3x wash, 0.2 mM PIC-1, 20 mM GSH+2 eq NaOH",1.9
same,Mean fluorescence intensity,"RBC Erythrosol pH 7.3 3x wash, 0.2 mM PIC-1, 2 mM GSH",199
same,Mean fluorescence intensity,"RBC Erythrosol pH 7.3 3x wash, 0.2 mM PIC-1, 20 mM GSH+0.9 eq NaOH",26.7
same,Mean fluorescence intensity,"RBC Erythrosol pH 7.3 3x wash, 0.2 mM PIC-1, 20 mM GSH+1.5 eq NaOH",4.9
same,Mean fluorescence intensity,"RBC Erythrosol pH 7.3 3x wash, 0.2 mM PIC-1, 20 mM GSH+2 eq NaOH",3.4
same,Mean fluorescence intensity,"RBC PBS pH 8 3x wash, 0.2 mM PIC-1, 2 mM GSH",25
same,Mean fluorescence intensity,"RBC PBS pH 8 3x wash, 0.2 mM PIC-1, 20 mM GSH+0.9 eq NaOH",7.2
same,Mean fluorescence intensity,"RBC PBS pH 8 3x wash, 0.2 mM PIC-1, 20 mM GSH+1.5 eq NaOH",5.1
same,Mean fluorescence intensity,"RBC PBS pH 8 3x wash, 0.2 mM PIC-1, 20 mM GSH+2 eq NaOH",5.1
same,Mean fluorescence intensity,"RBC in Erythrosol pH 7.3 no wash, 0.2 mM PIC-1, 2 mM GSH",108
same,Mean fluorescence intensity,"RBC in Erythrosol pH 7.3 no wash, 0.2 mM PIC-1, 20 mM GSH+0.9 eq NaOH",17.0
same,Mean fluorescence intensity,"RBC in Erythrosol pH 7.3 no wash, 0.2 mM PIC-1, 20 mM GSH+1.5 eq NaOH",8.1
same,Mean fluorescence intensity,"RBC in Erythrosol pH 7.3 no wash, 0.2 mM PIC-1, 20 mM GSH+2 eq NaOH",6.0
same,mean fluorescence,"Table 9A: 0.2 mM PIC-1+2 mM GSH, 0 eq NaOH, no delay (standard)",114
same,mean fluorescence,"Table 9A: 5 mM Cys+2 eq NaOH, then 0.2 mM PIC-1 after 5 min",8
same,mean fluorescence,"Table 9A: 5 mM Cys+2 eq NaOH, then 0.2 mM PIC-1 after 10 min",10.8
same,mean fluorescence,"Table 9A: 5 mM Cys+2 eq NaOH, then 0.2 mM PIC-1 after 20 min",8
same,mean fluorescence,"Table 9A: 10 mM Cys+2 eq NaOH, then 0.2 mM PIC-1 after 10 min",2.9
same,mean fluorescence,"Table 9A: 15 mM Cys+2 eq NaOH, then 0.2 mM PIC-1 after 10 min",1.9
same,mean fluorescence,"Table 9A: 20 mM Cys+2 eq NaOH, then 0.2 mM PIC-1 after 5 min",1.9
same,mean fluorescence,"Table 9A: 20 mM Cys+2 eq NaOH, then 0.2 mM PIC-1 after 10 min",1.9
same,mean fluorescence,"Table 9A: 20 mM Cys+2 eq NaOH, then 0.2 mM PIC-1 after 20 min",2
same,mean fluorescence,"Table 9A: 20 mM GSH+2 eq NaOH, then 0.2 mM PIC-1 after 10 min",2.6
same,mean fluorescence,"Table 9A: […] Cys+2 eq NaOH, then 0.2 mM PIC-1 after 10 min",37
same,mean fluorescence,"Table 9B: 0.2 mM PIC-1+2 mM GSH, 0 eq NaOH, no delay (standard)",160 and 151 and 182
same,mean fluorescence,"Table 9B: 5 mM Cys+1 eq NaOH, then 0.2 mM PIC-1 after 10 min",19.28
same,mean fluorescence,"Table 9B: 5 mM Cys+2 eq NaOH, then 0.2 mM PIC-1 after 10 min",14.1
same,mean fluorescence,"Table 9B: 5 mM Cys, 0 eq NaOH, then 0.2 mM PIC-1 after 10 min",49
same,mean fluorescence,"Table 9B: 10 mM Cys+1 eq NaOH, then 0.2 mM PIC-1 after 10 min",5.1
same,mean fluorescence,"Table 9B: 10 mM Cys+2 eq NaOH, then 0.2 mM PIC-1 after 10 min",3.6
same,mean fluorescence,"Table 9B: 10 mM Cys, 0 eq NaOH, then 0.2 mM PIC-1 after 10 min",11.6
same,mean fluorescence,"Table 9B: 20 mM Cys+1 eq NaOH, then 0.2 mM PIC-1 after 10 min",2.5
same,mean fluorescence,"Table 9B: 20 mM Cys, 0 eq NaOH, then 0.2 mM PIC-1 after 10 min",4.3
same,mean fluorescence,"Table 9B: 20 mM GSH+2 eq NaOH, then 0.2 mM PIC-1 after 10 min",6.06 and 5.62 and 5.6
same,mean fluorescence,"Table 9B: […] Cys+1 eq NaOH, then 0.2 mM PIC-1 after 10 min",49.5
same,mean fluorescence,"Table 9B: […] Cys+2 eq NaOH, then 0.2 mM PIC-1 after 10 min",49
same,mean fluorescence,"Table 9B: […] Cys, 0 eq NaOH, then 0.2 mM PIC-1 after 10 min",44
same,mean fluorescence,"Table 11C: 2 mM GSH, 1 eq. base, then 0.2 mM PIC-1",208.05
same,mean fluorescence,"Table 11C: 2 mM GSH, 2 eq. base, then 0.2 mM PIC-1",160.37
same,mean fluorescence,"Table 11C: 2 mM GSH, no added base, then 0.2 mM PIC-1",179.17
same,mean fluorescence,"Table 11C: 5 mM GSH, 1 eq. base, then 0.2 mM PIC-1",87.6
same,mean fluorescence,"Table 11C: 5 mM GSH, 2 eq. base, then 0.2 mM PIC-1",67.56
same,mean fluorescence,"Table 11C: 5 mM GSH, no added base, then 0.2 mM PIC-1",95.57
same,mean fluorescence,"Table 11C: 10 mM GSH, 1 eq. base, then 0.2 mM PIC-1",47.18
same,mean fluorescence,"Table 11C: 10 mM GSH, 2 eq. base, then 0.2 mM PIC-1",27.45
same,mean fluorescence,"Table 11C: 10 mM GSH, no added base, then 0.2 mM PIC-1",88.21
same,mean fluorescence,"Table 11C: 20 mM GSH, 1 eq. base, then 0.2 mM PIC-1",29.97
same,mean fluorescence,"Table 11C: 20 mM GSH, 2 eq. base, then 0.2 mM PIC-1",13.37
same,mean fluorescence,"Table 11C: 20 mM GSH, no added base, then 0.2 mM PIC-1",187.74
same,mean fluorescence,"Table 11C: co-addition std., 2 mM acidic glutathione with 0.2 mM PIC-1",144.33
